For this assay, the system named is human ovarian cancer cell line A2780. Put plainly: Growth inhibition assay (CellTiter 96 Non-Rad Cell Proliferation Assay). Type of assay: cell-based. The note with it: for efficacy compared with SHetA2 / IC50 compared with SHetA2: comparison in words; for IC50 compared with SHetA2: 'exceeded' = lower IC50 in Table 1. Here is the method:
To illustrate the general activity of the compounds inhibiting growth of human […] ovarian cancer cells, selected compounds were synthesized and evaluated. The compounds were dissolved in DMSO at a concentration of 0.01 M. The human ovarian cancer cell line A2780 was plated in 96-well tissue culture dishes at a concentration of 3000 cells per well in RPMI medium supplemented with 10% fetal bovine serum and a mixture of antibiotics and antimycotics. The next day, the cultures were treated in triplicate with compound concentrations ranging from 2 μM to 8 μM increments. For compound 12, additional experiments were performed with concentrations of 10 μM and a series of two-fold dilutions to 156 nM. Control cultures were treated with DMSO solvent only. After 72 h of incubation, the […] 96® Non-Rad Cell Proliferation Assay (Promega) was used to quantify the remaining metabolically living cells. After subtracting blank values, the optical density (OD) readouts of the assay for the treated cultures were normalized with the average OD of the control cultures. For each compound, the experiment was repeated at least once, resulting in a minimum of 6 dose-response curves. For SHetA2, 24 response curves were available for statistical fitting parameters. A custom program was written in GNU Octave, a free software compatible with Matlab, to fit the dose-response curves with a four-parameter sigmoid function, extracting the IC50 and efficacy (the maximal % growth inhibition) parameters.
To illustrate the useful biological activity of these chroman-substituted and tetrahydroquinoline-substituted heteroarotinoids, the compounds were screened against human […] ovarian cancer cells.

Setting [1] is: Homo sapiens, A2780, 72 h, Table 1, chroman-containing series.
[2] abbreviates: Homo sapiens, A2780, 72 h, Table 1, maximal % growth inhibition, A2780, 72 h, read-out: Efficacy.
Setting [3] is: Homo sapiens, A2780, 72 h, Table 2, tetrahydroquinoline-containing members.
[4] abbreviates: Homo sapiens, A2780, 72 h, Table 2, maximal % growth inhibition, A2780, 72 h, read-out: Efficacy.
Where [5] appears, read: Table 2, tetrahydroquinoline-containing members, A2780, 72 h.
Where [6] appears, read: Table 2, maximal % growth inhibition, A2780, 72 h.
Where [7] appears, read: Homo sapiens, A2780, Table 3, 14 series (thiochroman), A2780.
The mark [8] stands for this setting: Homo sapiens, A2780, Table 3, 14 series, A2780, read-out: % Efficacy.

Where two headings read alike, the source gives them in different places.

Turning to `CC1(C)CC(C)(C)c2cc(NC(=S)Nc3ccc([N+](=O)[O-])cc3)ccc2O1` [Compound 2a, 1-(4-Nitrophenyl)-3-(2,2,4,4-tetramethylchroman-6-yl)thiourea], under setting [1], the IC50 worked out at 6.97 µM. Besides, the Emax under setting [2] worked out at 87%. Further, for the setting “A2780”, the “efficacy compared with SHetA2” value was “exceeded the efficacy of SHetA2”.

Under setting [1], `CCOC(=O)c1ccc(NC(=S)Nc2ccc3c(c2)C(C)(C)CC(C)(C)O3)cc1` [Compound 2b, Ethyl 4-(3-(2,2,4,4-Tetramethylchroman-6-yl)thioureido)benzoate] displayed an IC50 of 4.3 µM. Also, the Emax under setting [2] came to 26%.

In turn, `CC1(C)CCOc2ccc(NC(=S)Nc3ccc([N+](=O)[O-])cc3)cc21` [Compound 4a, 1-(4-Nitrophenyl)-3-(4,4-dimethylchroman-6-yl)thiourea] came in with an IC50 under setting [1] of 6.4 µM. In addition, the Emax under setting [2] was determined as 19%.

With `CC1(C)CCOc2ccc(NC(=O)Nc3ccc([N+](=O)[O-])cc3)cc21` [Compound 5a, 1-(4-Nitrophenyl)-3-(4,4-dimethylchroman-6-yl)urea], the IC50 under setting [1] was determined as 6.7 µM. Besides, the Emax under setting [2] was 74%.

In the case of `CC1(C)CCOc2ccc(NC(=O)Nc3ccc(C(F)(F)F)cc3)cc21` [Compound 5b], under “Table 1, chroman-containing series, A2780, 72 h”, half-maximal inhibition (IC50) required 5 µM. The Efficacy (Table 1, maximal % growth inhibition, A2780, 72 h) was found to be 47%.

For `CCC1(CC)CC(C)(C)c2cc(NC(=S)Nc3ccc([N+](=O)[O-])cc3)ccc2O1` [Compound 6a, 1-(2,2-Diethyl-4,4-dimethylchroman-6-yl)-3-(4-nitrophenyl)thiourea], the IC50 under setting [1] amounted to 2.9 µM. In addition, the Emax under setting [2] was 93.9%. For the same compound, for the setting “A2780”, the “efficacy compared with SHetA2” value is reported as “exceeded the efficacy of SHetA2” and the “IC50 compared with SHetA2” value was “exceeded”.

Compound `CCC1(CC)CC(C)(C)c2cc(NC(=O)Nc3ccc([N+](=O)[O-])cc3)ccc2O1` [Compound 6b, 1-(2,2-Diethyl-4,4-dimethylchroman-6-yl)-3-(4-nitrophenyl)urea] had an IC50 under setting [1] of 2.17 µM. Under setting [2], the Emax is 93.3%. For the setting “A2780”, the “efficacy compared with SHetA2” value is on record as “exceeded the efficacy of SHetA2” and the “IC50 compared with SHetA2” value is given as “exceeded”.

The compound `CCC1(CC)CC(C)(C)Oc2ccc(NC(=S)Nc3ccc([N+](=O)[O-])cc3)cc21` [Compound 7a, 1-(4,4-Diethyl-2,2-dimethylchroman-6-yl)-3-(4-nitrophenyl)thiourea] came in with an IC50 under setting [1] of 3.69 µM. For the same compound, the Emax under setting [2] came out at 95.7%. Besides, the “efficacy compared with SHetA2” value (A2780) was “exceeded the efficacy of SHetA2”.

`CCC1(CC)CC(C)(C)Oc2ccc(NC(=O)Nc3ccc([N+](=O)[O-])cc3)cc21` [Compound 7c, 1-(4,4-Diethyl-2,2-dimethylchroman-6-yl)-3-(4-nitrophenyl)urea] gave an IC50 under setting [1] of 2.05 µM. For the same compound, the Emax under setting [2] was 93.6%. Besides, where the note is “A2780”, the “efficacy compared with SHetA2” value is “exceeded the efficacy of SHetA2” and the “IC50 compared with SHetA2” value is on record as “exceeded”.

In the case of `CCC1(CC)CC(CC)(CC)c2cc(NC(=S)Nc3ccc([N+](=O)[O-])cc3)ccc2O1` [Compound 8a, 1-(4-Nitrophenyl)-3-(2,2,4,4-tetraethylchroman-6-yl)thiourea], 4.6 µM corresponded to half-maximal inhibition under setting [1] (IC50). Besides, the Emax under setting [2] came to 94%. The “efficacy compared with SHetA2” value (A2780) is given as “exceeded the efficacy of SHetA2”.

Take `CCC1(CC)CC(CC)(CC)c2cc(NC(=O)Nc3ccc([N+](=O)[O-])cc3)ccc2O1` [Compound 8b, 1-(4-Nitrophenyl)-3-(2,2,4,4-tetraethylchroman-6-yl)urea]: 2.09 µM corresponded to half-maximal inhibition under setting [1] (IC50). The Emax under setting [2] stood at 91.4%. Moreover, under “A2780”, the “efficacy compared with SHetA2” value is given as “exceeded the efficacy of SHetA2” and the “IC50 compared with SHetA2” value is listed as “exceeded”.

Take `CC1(C)CC[N+](C)(C)c2ccc(NC(=O)Nc3ccc([N+](=O)[O-])cc3)cc21` [Compound 10, 1,1,4,4-Tetramethyl-6-(3-(4-nitrophenyl)ureido)-1,2,3,4-tetrahydroquinolin-1-ium Iodide]: the IC50 under setting [3] is 6.6 µM. The Emax under setting [4] is 22%.

`CN1c2ccc(NC(=S)Nc3ccc(C(F)(F)F)cc3)cc2C(C)(C)C(=O)C1(C)C` [Compound 11d] registered an IC50 under setting [5] of 3.9 µM. Further, under setting [6], the Efficacy is 90.8 (±2.0) %.

Consider `CN1c2ccc(NC(=O)Nc3ccc(N)cc3)cc2C(C)(C)C(=O)C1(C)C` [Compound 11g, 1-(4-Aminophenyl)-3-(1,2,2,4,4-pentamethyl-3-oxo-1,2,3,4-tetrahydroquinolin-6-yl)urea], for which the IC50 under setting [3] was determined as 7.7 µM. Further, the Emax under setting [4] came out at 24%.

As for `CN1c2ccc(NC(=S)Nc3ccc([N+](=O)[O-])cc3)cc2C(C)(C)C(O)C1(C)C` (stereo not drawn) [Compound 13b], the IC50 under setting [5] is 10 µM. The Efficacy under setting [6] is listed as 25 (±4) %.

In turn, `CC1(C)CC(C)(C)c2cc(NC(=O)Nc3ccc(C(F)(F)F)cc3)ccc2S1` [Compound 14a, 1-(2,2,4,4-Tetramethylthiochroman-6-yl)-3-(4-(trifluoromethyl)phenyl)urea] had an IC50 under setting [7] of 3.79 ± 0.05 µM. Moreover, the Emax under setting [8] turned out to be 93.3 ± 0.1%. Also, the “efficacy compared with SHetA2” value (A2780) is on record as “exceeded that of SHetA2 in efficacy”.

For `CC1(C)CC(C)(C)c2cc(NC(=O)Nc3ccc(OC(F)(F)F)cc3)ccc2S1` [Compound 14b, 1-(2,2,4,4-Tetramethylthiochroman-6-yl)-3-(4-(trifluoromethoxy)phenyl)urea], half-maximal inhibition under setting [7] (IC50) required 1.86 ± 0.09 µM. Under setting [8], the Emax was 95.6 ± 0.4%. In addition, for the setting “A2780”, the “efficacy compared with SHetA2” value is “exceeded that of SHetA2 in efficacy”.

The compound `CC1(C)CC(C)(C)c2cc(NC(=O)Nc3ccc(C#N)cc3)ccc2S1` [Compound 14c, 1-(4-Cyanophenyl)-3-(2,2,4,4-tetramethylthiochroman-6-yl)urea] had an IC50 under setting [7] of 3.93 ± 0.03 µM. Moreover, under setting [8], the Emax was 93.3 ± 0.1%. Also, the “efficacy compared with SHetA2” value (A2780) is on record as “exceeded that of SHetA2 in efficacy”.

As for `CC1(C)CC(C)(C)c2cc(NC(=S)Nc3ccc(Cl)cc3)ccc2S1` [Compound 14d, 1-(4-Chlorophenyl)-3-(2,2,4,4-tetramethylthiochroman-6-yl)thiourea], the IC50 under setting [7] is 3.17 ± 0.25 µM. For the same compound, the Emax under setting [8] stood at 91.9 ± 0.5%. The “efficacy compared with SHetA2” value (A2780) is “exceeded that of SHetA2 in efficacy”.

Under setting [7], `CC1(C)CC(C)(C)c2cc(NC(=S)Nc3ccc(C(F)(F)F)cc3)ccc2S1` [Compound 14e, 1-(2,2,4,4-Tetramethylthiochroman-6-yl)-3-(4-(trifluoromethyl)phenyl)thiourea] displayed an IC50 of 2.86 ± 0.29 µM. In addition, under setting [8], the Emax stood at 95.9 ± 0.6%. Also, under “A2780”, the “efficacy compared with SHetA2” value is “exceeded that of SHetA2 in efficacy”.

In turn, `CC1(C)CC(C)(C)c2cc(NC(=S)Nc3ccc(OC(F)(F)F)cc3)ccc2S1` [Compound 14f, 1-(2,2,4,4-Tetramethylthiochroman-6-yl)-3-(4-(trifluoromethoxy)phenyl)thiourea] registered an IC50 under setting [7] of 3.51 ± 0.07 µM. Besides, the Emax under setting [8] is 95.3 ± 0.4%. Moreover, the “efficacy compared with SHetA2” value (A2780) is “exceeded that of SHetA2 in efficacy”.

Regarding `CC1(C)CC(C)(C)c2cc(NC(=S)Nc3ccc(C(N)=O)cc3)ccc2S1` [Compound 14g, 4-(3-(2,2,4,4-Tetramethylthiochroman-6-yl)thioureido)benzamide], under setting [7], the IC50 is 3.53 ± 0.12 µM. The Emax under setting [8] was 64.2 ± 1.8%.

`COc1ccc(NC(=S)Nc2ccc3c(c2)C(C)(C)CC(C)(C)S3)cc1` [Compound 14h, 1-(4-Methoxyphenyl)-3-(2,2,4,4-tetramethylthiochroman-6-yl)thiourea] returned an IC50 under setting [7] of 2.78 ± 0.47 µM. Under setting [8], the Emax is 59.8 ± 1.2%.

For orientation: IC50 means the concentration that inhibits the measured activity by half. Higher therefore signals a need for much substance.

The values are drawn from patent US11993573B2, “Chromane-substituted, tetrahydroquinoline-substituted and thiochromane-substituted heteroarotinoids as anti-cancer agents” (THE BOARD OF REGENTS FOR OKLAHOMA STATE UNIVERSITY, priority 2018, dated 2024).
